Non-standard residues stand in square brackets, D forms with d. Residues, ends and D or L forms follow the SMILES beside them. *: point of attachment. Npys = O=[N+]([O-])c1cccnc1S*; Mpa = O=C(O)CCS
First: CCCCCCCCCCCCCCCCCC(=O)NCC(C)(C)COC(=O)CCc1cc(C(C)(C)C)c(O)c(C(C)(C)C)c1
Second: CC(C)(C)c1nc(C(=O)c2ccccc2)nc(C(C)(C)C)c1O
The melting point of the first is lower: 44 °C for the first, 129 to 131 °C for the second.

First: OCC(O)Cc1cc(Cl)c2ccccc2c1OCc1ccccc1 (stereo not given)
Second: CCOC(=O)c1cc2c(OCc3ccccc3)ccc3c(CC)c(-c4ccc(OCc5ccccc5)cc4)c1n23
The melting point of the first is lower: 69 to 71 °C for the first, 114 to 116 °C for the second.

First: Cn1cc(NC=O)cc1C(=O)O
Second: CC(C)Cn1cc(C(N)=O)c(N)n1
The melting point of the first is higher: 208 to 210 °C for the first, 154 to 158 °C for the second.

Compared with `O=C(O)c1ccc2nc3c4nc5cc(C(=O)O)ccc5nc4c4nc5cc(C(=O)O)ccc5nc4c3nc2c1`, `COc1nc2cccc(C(=O)O)c2n1Cc1ccc(-c2ccccc2-c2nnn[nH]2)cc1` is lower in melting point: > 390 °C for the first, 208 to 209 °C for the second.

First: CCOC(=O)c1ccc(OCC2CN(c3nnc(C)s3)CCO2)cc1 (stereo not given)
Second: CCCN(CCCCc1coc2c(OC)cccc12)C1COc2c(F)ccc(C(N)=O)c2C1 (stereo not given)
The melting point of the first is higher: 112 °C for the first, 99 to 110 °C for the second.

Compared with `COC(=O)C1=C2Nc3ccccc3C23CCNC3CC1` (stereo not given), `Nc1c2c(nc3ccccc13)C1CCC2C1` (stereo not given) is higher in melting point: 145 to 148 °C for the first, 185 to 186 °C for the second.

Compared with `CCN(CC)CCOCCc1ccc2c(c1)OCO2`, `CCN(CC)C(=O)C=Cc1ccccc1` is lower in melting point: 83 to 84 °C for the first, 65 °C for the second.

Compared with `COc1cc2c(cc1OC)[C@H]([C@H](O)c1ccccc1)OC2=O`, `COc1ccc(C2=NN(CCCOc3ccccc3)C(=O)[C@H]3CCCC[C@@H]23)cc1OC` (relative stereo) is lower in melting point: 113 to 115 °C for the first, 78 to 81 °C for the second.

Compared with `CC(=O)c1nccc(-c2ccc(Oc3ccc(F)cc3)cc2)n1`, `Fc1ccc(Cn2c(NC3CCN(CCNc4nc(-c5ccccc5)cs4)CC3)nc3ccccc32)cc1` is higher in melting point: 61 to 63 °C for the first, 176 °C for the second.

First: CC(C)C[C@@H](C=O)NC(=O)[C@H](Cc1c[nH]cn1)NC(=O)[C@H](Cc1ccccc1)NC(=O)CCSSc1ncccc1[N+](=O)[O-] ([Mpa](Npys)FHL-aldehyde)
Second: O=C(c1cccs1)c1cnn2c(-c3cccc(-c4nnn(CCN5CCCC5)n4)c3)ccnc12
The melting point of the first is higher: 101 to 105 °C for the first, 98 °C for the second.

First: Cc1cc(C#N)cc(C(=O)Nc2ccc(Cl)cn2)n1
Second: Cc1cc(C)n2nc(S(=O)(=O)Nc3c(Cl)ccc(C)c3Cl)nc2n1
The melting point of the first is lower: 234 °C for the first, 286 to 288 °C for the second.

First: COc1ccc(C#N)cc1OC1COCC1OC (stereo not given)
Second: COc1cc2nc(C)[nH]c(=O)c2cc1OCCCN1CCOCC1
The melting point of the first is lower: 98 to 100 °C for the first, 236 to 238 °C for the second.

First: COC(=O)CCCc1n[nH]c(=O)c2cc(OC)ccc12
Second: CSc1ccc2c(C(=O)C(F)(F)F)c[nH]c2c1
The melting point of the first is lower: 175 to 177 °C for the first, 237 to 239 °C for the second.

Compared with `CCCCc1c2c(cc3ccc(O)cc13)-c1ccc(O)cc1CO2`, `O=C1N(Cc2cc(-c3ccc(Cl)cc3)oc2C(F)(F)F)c2ccccc2C12COc1cc3c(cc12)OCO3` (stereo not given) is lower in melting point: 187 to 189 °C for the first, 114 to 116 °C for the second.

Compared with `COc1ccnc(N2CCN(Cc3ccc(C(C)(C)NC(C)=O)cc3)CC2)n1`, `NC(=O)Nc1cccc2c1C(=O)c1c-2n[nH]c1-c1cccs1` is higher in melting point: 160 to 162 °C for the first, 214 °C for the second.
